Reference: patent US6767895B2 (priority 2000, dated 2004)

Key:
[1] = in vivo
mice = conditions: mouse, in vivo
goldfish = conditions: in vivo

Question: Which “activity in formalin test (licking time)” value [1] does the source give for “Gly-Xaa3-Ser-Phe-Cys-Lys-Ala-Asn-Gly-Lys-Xaa3-Cys-Ser-Xaa5-His-Ala-Asp-Cys-Cys-Asn-Cys-Cys-Leu-Ser-Gly-Ile-Cys-Lys-Xaa3-Ser-Thr-Asn-Val-Ile-Leu-Xaa3-Gly-Cys-Ser-Thr-Ser-Ser-Phe-Phe-Arg-Ile [R11.14]” here?
Answer: The value was “active”.

Question: For “Xaa2-Cys-Lys-Thr-Asn-Lys-Met-Ser-Cys-Ser-Leu-His-Xaa1-Xaa1-Cys-Cys-Arg-Phe-Arg-Cys-Cys-Phe-His-Gly-Lys-Cys-Gln-Thr-Ser-Val-Phe-Gly-Cys-Xaa4-Val-Asp-Xaa3 [R11.19]”, which “effects observed shortly after injection in mice” value (mice) is on record?
Answer: The value was “running and jumping in short duration immediately followed by convulsion with back legs kicking, copius urination, coma and death”.

Question: What about the “effects observed shortly after injection in goldfish” value (goldfish) of the same substance?
Answer: Its value is “gasping (gills opening widely), followed by swimming backward or in circular and/or vertical motion, imbalanced swimming (body tilting), lying almost flat near the bottom and death”.
